Experimental data reported in patent US5476847A, “Derivatives of phosphinic acid useful as endothelin converting enzyme inhibitors” (priority 1994, dated 1995).
pIC50: −log10 of the molar value. Like-named read-outs stand apart in the source and are kept apart here.

Biological target: T1, ECE (Cavia porcellus, UniProt P97739)
T1 construct: tissue Keystone Biologicals, Cleveland, Ohio; host or cells: frozen guinea pig lungs; lubrol PX-treated lung membranes
T1 sequence (P97739 1-754): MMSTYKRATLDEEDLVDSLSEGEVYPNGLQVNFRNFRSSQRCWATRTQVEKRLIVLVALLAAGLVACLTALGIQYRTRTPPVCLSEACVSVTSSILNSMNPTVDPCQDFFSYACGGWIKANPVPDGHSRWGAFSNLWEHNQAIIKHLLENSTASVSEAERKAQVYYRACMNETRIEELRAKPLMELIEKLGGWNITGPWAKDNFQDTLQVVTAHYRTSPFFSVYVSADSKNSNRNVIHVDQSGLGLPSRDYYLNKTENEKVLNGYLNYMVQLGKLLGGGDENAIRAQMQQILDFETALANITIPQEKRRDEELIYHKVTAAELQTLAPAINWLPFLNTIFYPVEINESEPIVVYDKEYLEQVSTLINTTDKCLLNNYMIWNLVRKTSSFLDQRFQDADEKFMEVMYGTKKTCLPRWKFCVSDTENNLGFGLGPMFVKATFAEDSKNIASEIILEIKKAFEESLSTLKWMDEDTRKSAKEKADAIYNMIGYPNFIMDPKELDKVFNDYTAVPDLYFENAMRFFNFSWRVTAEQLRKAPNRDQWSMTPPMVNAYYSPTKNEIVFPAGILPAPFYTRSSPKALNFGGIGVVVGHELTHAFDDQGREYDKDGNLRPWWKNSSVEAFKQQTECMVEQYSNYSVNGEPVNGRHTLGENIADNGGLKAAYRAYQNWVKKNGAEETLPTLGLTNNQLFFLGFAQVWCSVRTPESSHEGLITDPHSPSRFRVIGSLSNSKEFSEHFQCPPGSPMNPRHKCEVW
Assay: In vitro ECE assay (inhibition of [125I]BET-1 to [125I]ET-1 conversion, lubrol-treated guinea pig lung membrane)
Format: biochemical
Settings: L-GPLGM
Source text: The ECE assay is based on the quantitative determination of [^125 l]ET-1 released from [^125 l]BET-1 labeled on Tyrosine-13 by binding to the membrane-bound ET receptor. […] GPLGM was also found to contain a high density of ET receptors. Thus, this preparation was utilized as a source of both ECE and a saturating concentration of ET receptors for the quantitative determination of [251l]ET-1 from the conversion of [125l ]BET-1. Under selected experimental conditions of the ECE assay, specific [125l]ET-1 bound was directly related to ECE activity. Assays were carried out in the presence of varying concentrations of test compounds to evaluate their efficacy in inhibiting ECE activity.
Frozen guinea pig lungs (Keystone Biologicals,Cleveland, Ohio) are weighed and homogenized in 10 times gram tissue weight of solution A (50 mM Tris-HCl, pH 7.4, 0.25M sucrose, and 2 mM EDTA) using a Polytron tissue homogenizer (probe PTA-20S). Homogenization is repeated four times at speed setting seven each for 10 s and with 5-8 min intervals on ice in between homogenization. Homogenates are spun for 30 min at 2000 g (4100 rpm in an SS34 rotor or 3800 rpm in an SA-600 rotor). Supernatants containing membranes are carefully decanted and saved. Pellets are rehomogenized in solution A as described, and homogenates are spun at 2000 g for 30 min. Supernatants are removed, mixed with the supernatants from the first spin, and spun at 37000 rpm in a 45 Ti rotor (107022 g) for 60 min. Pellets containing membranes are suspended in solution B (10 mM Tris-HCl, pH 7.4, and 0.125M sucrose) using a Dounce homogenizer. Samples are divided into 1 ml fractions, rapidly frozen in a dry ice methanol bath, and stored at -80° C. All steps are carried out at 4° C.
GPLGM fractions prepared as described above are thawed and resuspended at a concentration of 1 mg membrane protein/mL in a solution containing 0.06% lubrol PX, 50 mM Tris-HCl (pH 7.4), and 100 mM NaCl. Stir the mixture for 1 h and then spin for 1 h at 37000 rpm in a 45 Ti rotor (107022 g). Discard the supernatants and resuspend the pellets in a solution containing 50 mM Tris-HCl (pH 7.4), and 100 mM NaCl using a Dounce homogenizer, and adjust the final volume to half the original volume. Spin the homogenates for 1 h at 37000 rpm in a 45 Ti rotor (107022 g). Suspend the membrane pellets in solution B and treat as described above. All steps are performed at 4° C.
ECE Assay: Samples of L-GPLGM containing 20 μg protein are incubated in a solution containing 100 mM Tris-HCl (pH 7), 100 mM NaCl, and 5 mg/ml BSA (Fraction V, 98-99% albumin) (Sigma Chemical Co.) at a final reaction volume of 100 μL. The ECE assay is initiated by the addition of [^125 l]BET-1 to obtain a final concentration of 500 pM. Reactions are carried out for 30 min at 37° C. Reactions are terminated by addition of 4 mL of solution C (10 mM Tris-HCl, pH 7.4, and 150 mM NaCl) at 4° C. followed by rapid filtration on Whatman GF/B glass microfiber filters. Filters are presoaked for 1 h at 4° C. in a solution containing 50 mM Tris-HCl (pH 7.4), 10 mg/mL BSA, and 0.1% sodium azide. Wash test tubes and filters four times with 4 mL of solution C at 4° C., and count radioactivity retained on the filters in a γ counter. Non-specific binding is determined in the presence of 1 μM of unlabeled ET-1 (Peninsula Laboratories, Inc., Belmont, Calif.) in the reaction mixture. All reactions are performed in duplicate.
To test the effect of test compounds on ECE activity, ECE assays are carried out in the presence of varying concentrations of the compounds. Assays are initiated following a 2 h incubation of L-GPLGM with the compound at 4° C. ECE activity in the presence of compounds is expressed as a percentage of control ECE activity of the membrane preparation, which is determined simultaneously.

[1] = table of additional compounds, read-out: IC50 (in vitro ECE inhibition activity)
[2] = 2 h preincubation at 4° C., 500 pM [125I]BET-1, table of examples, read-out: ECE IC50

| pIC50 [1] | pIC50 [2] | SMILES |
| --- | --- | --- |
| 7.22 | – | CC(C)CC(CP(=O)(O)C(Cc1ccc2ccccc2c1)NC(=O)C(CCCCN)NS(C)(=O)=O)C(=O)N[C@@H](Cc1c[nH]c2ccccc12)C(=O)O (single isomer, unassigned) |
| – | 7.30 | COc1ccc(CC(NC(=O)[C@H](CCCCNC(=O)OCc2ccccc2)NS(C)(=O)=O)P(=O)(O)CC2(C(=O)N[C@@H](Cc3c[nH]c4ccccc34)C(=O)O)CCCC2)cc1 (stereo partly shown) [Example 3A] |
| – | 6.92 | CS(=O)(=O)N[C@@H](CCCCNC(=O)OCc1ccccc1)C(=O)N[C@@H](Cc1ccccc1)P(=O)(O)CC1(C(=O)N[C@@H](Cc2ccc(O)cc2)C(=O)O)CCCC1 [Example 4] |
| 6.59 | – | CC(C)CC(NC(=O)C(CCCCNC(=O)OCc1ccccc1)NS(C)(=O)=O)P(=O)(O)CC1(C(=O)N[C@@H](Cc2c[nH]c3ccccc23)C(=O)O)CCCC1 (stereo partly shown) |
| 5.85 | – | CC(C)CC(CP(=O)(O)C(CC(C)C)NC(=O)C(CCCCNC(=O)OCc1ccccc1)NS(C)(=O)=O)C(=O)N[C@@H](Cc1c[nH]c2ccccc12)C(=O)O (stereo partly shown) |
| 6.40 | – | CCC(C)C(NC(=O)OCc1ccccc1)C(=O)NC(Cc1ccccc1)P(=O)(O)CC(C(=O)N[C@@H](Cc1c[nH]c2ccccc12)C(=O)O)C(C)C (stereo partly shown) |
| – | 7.19 | CC(C)CC(CP(=O)(O)C(Cc1ccc2ccccc2c1)NC(=O)[C@H](CCCCNC(=O)OCc1ccccc1)NS(C)(=O)=O)C(=O)N[C@@H](Cc1c[nH]c2ccccc12)C(=O)O (single isomer, unassigned) [Example 9A] |
| – | 6.60 | O=C(N[C@@H](Cc1ccccc1)P(=O)(O)CC1(C(=O)N[C@@H](Cc2c[nH]c3ccccc23)C(=O)O)CCCC1)c1ccccc1 [Example 6.2B] |
| – | 5.85 | CC(C)CC(CP(=O)(O)C(CC(C)C)NC(=O)[C@H](CCCCNC(=O)OCc1ccccc1)NS(C)(=O)=O)C(=O)N[C@@H](Cc1c[nH]c2ccccc12)C(=O)O (stereo partly shown) [Example 10B] |
| 6.30 | – | CC(C)CC(CP(=O)(O)C(Cc1ccccc1)NC(=O)C(CCCCNC(=O)OCc1ccccc1)NS(C)(=O)=O)C(=O)N[C@@H](Cc1c[nH]c2ccccc12)C(=O)O (stereo partly shown) |
| – | 5.35 | CC(C)CC(CP(=O)(O)C(Cc1ccc2ccccc2c1)NC(=O)[C@H](CCCCNC(=O)OCc1ccccc1)NS(C)(=O)=O)C(=O)N[C@@H](Cc1c[nH]c2ccccc12)C(=O)O (single isomer, unassigned) [Example 9C] |
| 6.70 | – | CC(C)CC(CP(=O)(O)C(CCCCO)NC(=O)OCc1ccccc1)C(=O)N[C@@H](Cc1c[nH]c2ccccc12)C(=O)O (stereo partly shown) [Cbz, HO(CH2)4, H, iso-butyl] |
| 5.96 | – | CC(C)C(CP(=O)(O)C(Cc1ccccc1)NC(=O)C(CCCCNC(=O)OCc1ccccc1)NC(=O)OCc1ccccc1)C(=O)N[C@@H](Cc1c[nH]c2ccccc12)C(=O)O (stereo partly shown) |
| – | 7.26 | CC(C)CC(CP(=O)(O)C(CC1CCCC1)NC(=O)[C@H](CCCCNC(=O)OCc1ccccc1)NS(C)(=O)=O)C(=O)N[C@@H](Cc1c[nH]c2ccccc12)C(=O)O (stereo partly shown) [Example 10E] |
| 5.80 | – | CCC(C)C(N)C(=O)NC(Cc1ccccc1)P(=O)(O)CC(C(=O)N[C@@H](Cc1c[nH]c2ccccc12)C(=O)O)C(C)C (stereo partly shown) |
| 6.26 | – | CC(C)C(CP(=O)(O)C(Cc1ccccc1)NC(=O)C(CCCN)NS(C)(=O)=O)C(=O)N[C@@H](Cc1c[nH]c2ccccc12)C(=O)O (stereo partly shown) |

| pIC50 [1] | pIC50 [2] | SMILES |
| --- | --- | --- |
| 6.72 | – | O=C(NC(Cc1ccccc1)P(=O)(O)CC1(C(=O)N[C@@H](Cc2c[nH]c3ccccc23)C(=O)O)CCCC1)OCc1ccccc1 (stereo partly shown) [Cbz, C6 H5CH2, R3 + R4 = (CH2)4] |
| – | 6.31 | O=C(NC(Cc1ccc(C(=O)O)cc1)P(=O)(O)CC1(C(=O)N[C@@H](Cc2c[nH]c3ccccc23)C(=O)O)CCCC1)OCc1ccccc1 (stereo partly shown) [Example 8B] |
| – | 7.00 | CS(=O)(=O)N[C@@H](CCCCN)C(=O)N[C@@H](Cc1ccccc1)P(=O)(O)CC1(C(=O)N[C@@H](Cc2ccc(O)cc2)C(=O)O)CCCC1 [Example 5C] |
| – | 7.26 | CS(=O)(=O)N[C@@H](CCCCNC(=O)OCc1ccccc1)C(=O)NC(Cc1ccc2ccccc2c1)P(=O)(O)CC1(C(=O)N[C@@H](Cc2c[nH]c3ccccc23)C(=O)O)CCCC1 (stereo partly shown) [Example 3C] |
| – | 6.54 | NC(=O)c1ccc(CC(NC(=O)OCc2ccccc2)P(=O)(O)CC2(C(=O)N[C@@H](Cc3c[nH]c4ccccc34)C(=O)O)CCCC2)cc1 (stereo partly shown) [Example 8A] |
| 6.52 | – | CC(C)CC(CP(=O)(O)C(Cc1ccc2ccccc2c1)NC(=O)OCc1ccccc1)C(=O)N[C@@H](Cc1c[nH]c2ccccc12)C(=O)O (stereo partly shown) [Cbz, 2-naphthylmethyl, H, iso-butyl] |
| – | 6.89 | O=C(N[C@@H](Cc1ccccc1)P(=O)(O)CC1(C(=O)N[C@@H](Cc2ccc(O)cc2)C(=O)O)CCCC1)OCc1ccccc1 [Example 2] |
| 6.30 | – | O=C(NC(Cc1ccc2ccccc2c1)P(=O)(O)CC1(C(=O)N[C@@H](Cc2c[nH]c3ccccc23)C(=O)O)CCCC1)OCc1ccccc1 (stereo partly shown) [Cbz, 2-naphthylmethyl, R3 + R4 = (CH2)4] |
| – | 6.82 | CC(C)CC(CP(=O)(O)C(CCCCO)NC(=O)[C@H](CC(C)C)NS(C)(=O)=O)C(=O)N[C@@H](Cc1c[nH]c2ccccc12)C(=O)O (stereo partly shown) [Example 10D] |
| – | 6.94 | COc1ccc(CC(NC(=O)OCc2ccccc2)P(=O)(O)CC2(C(=O)N[C@@H](Cc3c[nH]c4ccccc34)C(=O)O)CCCC2)cc1 (stereo partly shown) [Example 1A] |
| – | 7.00 | CS(=O)(=O)N[C@@H](CCCCN)C(=O)NC(Cc1ccc(O)cc1)P(=O)(O)CC1(C(=O)N[C@@H](Cc2c[nH]c3ccccc23)C(=O)O)CCCC1 (stereo partly shown) [Example 5B] |
| 6.41 | – | CC(C)C(CP(=O)(O)C(Cc1ccccc1)NC(=O)C(CCCCNC(=O)OCc1ccccc1)NS(C)(=O)=O)C(=O)N[C@@H](Cc1c[nH]c2ccccc12)C(=O)O (single isomer, unassigned) |
| – | 6.40 | O=C(NC(Cc1ccc(OCc2ccccc2)cc1)P(=O)(O)CC1(C(=O)N[C@@H](Cc2c[nH]c3ccccc23)C(=O)O)CCCC1)OCc1ccccc1 (stereo partly shown) [Example 1B] |
| – | 7.26 | CC(C)CC(NC(=O)[C@H](CCCCNC(=O)OCc1ccccc1)NS(C)(=O)=O)P(=O)(O)CC1(C(=O)N[C@@H](Cc2c[nH]c3ccccc23)C(=O)O)CCCC1 (stereo partly shown) [Example 3D] |
| – | 7.07 | O=C(NC(Cc1ccc(O)cc1)P(=O)(O)CC1(C(=O)N[C@@H](Cc2c[nH]c3ccccc23)C(=O)O)CCCC1)OCc1ccccc1 (stereo partly shown) [Example 8] |
